# Tests used:
# [1] = test system: 35B1(Kras)-D (DNA, G4) AGGGCGGTGTGGGAAGAGGGAAGAGGGGGAGGCAG; assay: CD titration; conditions: no added salt; 20 mM Tris-HCl, pH 7.4; 0 to 30 μM ThT; induces parallel G4
# [2] = test system: 22Ag-D (DNA, G4) AGGGTTAGGGTTAGGGTTAGGG; assay: ITC; conditions: K+ 40 mM; 20 mM Tris-HCl, pH 7.4; 500 μM ligand into 25 μM DNA
# [3] = test system: VAV1-D (DNA, G4) GGGCAGGGAGGGAACTGGG; assay: ITC; conditions: K+ 40 mM; 20 mM Tris-HCl, pH 7.4; 500 μM ligand into 25 μM DNA
# [4] = test system: ERSI-D (DNA, G4) GGGTAGGGGCAAAGGGGCTGGGG; assay: ITC; conditions: K+ 40 mM; 20 mM Tris-HCl, pH 7.4; 500 μM ligand into 25 μM DNA
# [5] = test system: 32 Kras-D (DNA, G4) AGGGCGGTGTGGGAAGAGGGAAGAGGGGGAGG; assay: CD titration; conditions: no added salt; 20 mM Tris-HCl, pH 7.4; 0 to 30 μM ThT; induces parallel G4
# [6] = test system: 19AT-D (DNA, duplex) ACGTCGATTATAGACGAGC/GCTCGTCTATAATCGACGT; assay: native PAGE post-staining; conditions: 20 μM ThT-E stain; no band; fluorescence rise below 3-fold
# [7] = test system: Insulin a2-D (DNA, G4) ACAGGGGTGTGGGGACAGGGGTGTGGGG; assay: native PAGE post-staining; conditions: 20 μM ThT-E stain; band seen
# [8] = test system: ssAf17-D (DNA, single strand) CTGAGTTGTATATATTCG; assay: native PAGE post-staining; conditions: 20 μM ThT-E stain; no band; 2.77-fold fluorescence
# [9] = test system: 21CTA-D (DNA, G4) GGGCTAGGGCTAGGGCTAGGG; assay: native PAGE post-staining; conditions: 20 μM ThT-E stain; band seen
# [10] = test system: Bulges-TB1 (DNA, G4) TTGTGGTGGGTGGGTGGGT; assay: fluorescence light-up; conditions: K+ 40 mM; 20 mM Tris-HCl, pH 7.4; 2 μM ThT-E; 46.05-fold
# [11] = test system: TBA-D (DNA, G4) GGTTGGTGTGGTTGG; assay: fluorescence light-up; conditions: K+ 40 mM; 20 mM Tris-HCl, pH 7.4; 2 μM ThT-E, 2 μM DNA
# [12] = test system: 45Ag-D (DNA, G4) GGGTTAGGGTTAGGGTTAGGGTTAGGGTTAGGGTTAGGGTTAGGG; assay: fluorescence light-up; conditions: K+ 40 mM; 20 mM Tris-HCl, pH 7.4; 2 μM ThT-E, 2 μM DNA; 146-fold
# [13] = test system: BCL-2Mid-D (DNA, G4) GGGCGCGGGAGGAATTGGGCGGG; assay: native PAGE post-staining; conditions: 20 μM ThT-E stain; band seen
# [14] = test system: 32 Kras-D (DNA, G4) AGGGCGGTGTGGGAAGAGGGAAGAGGGGGAGG; assay: fluorescence light-up; conditions: K+ 40 mM; 20 mM Tris-HCl, pH 7.4; 2 μM ThT-E, 2 μM DNA; 125-fold
# [15] = test system: CT4-D (DNA, G4) GGGCTTTTGGGC; assay: fluorescence light-up; conditions: K+ 40 mM; 20 mM Tris-HCl, pH 7.4; 2 μM ThT-E, 2 μM DNA
# [16] = test system: G-tripl-D (DNA, other) GGTTGGTGTGG; assay: native PAGE post-staining; conditions: 20 μM ThT-E stain; no band
# [17] = test system: B-raf-D (DNA, G4) GGGCGGGGAGGGGGAAGGGA; assay: fluorescence light-up; conditions: K+ 40 mM; 20 mM Tris-HCl, pH 7.4; 2 μM ThT-E, 2 μM DNA
# [18] = test system: ADAM10-D (DNA, G4) GGGGGACGGGTAGGGGCGGGAGGTAGGGG; assay: fluorescence light-up; conditions: K+ 40 mM; 20 mM Tris-HCl, pH 7.4; 2 μM ThT-E, 2 μM DNA; 159-fold
# [19] = test system: c-myc-D (DNA, G4) TGAGGGTGGGTAGGGTGGGTAA; assay: 1H NMR titration; conditions: K+ 40 mM; phosphate buffer, pH 7.4, 25 °C; stacks on 5'-end G-tetrad
# [20] = test system: c-myc-D (DNA, G4) TGAGGGTGGGTAGGGTGGGTAA; assay: UV-vis titration; conditions: 2 μM ThT-E, 0 to 8 μM DNA; 23 nm red shift
# [21] = test system: dx12-D (DNA, duplex) GCGTGAGTTCGG/CCGAACTCACGC; assay: native PAGE post-staining; conditions: 20 μM ThT-E stain; no band
structure (smiles),measurement,setting,value
Cc1ccc2c(c1)sc(-c1ccc(N(C)C)cc1)[n+]2C,binding,[1],yes
same,dissociation constant,[2],22.03 µM
same,dissociation constant,[3],334.4 µM
same,dissociation constant,[4],233.4 µM
same,binding,[5],yes
CCN(CC)c1ccc(-c2sc3cc(C)ccc3[n+]2CC)cc1,binding,[6],no
same,binding,[7],yes
same,binding,[8],no
same,binding,[9],yes
same,binding,[10],yes
same,binding,[11],weak
same,dissociation constant,[2],17.78 µM
same,binding,[12],yes
same,dissociation constant,[3],74.73 µM
same,binding,[13],yes
same,binding,[14],yes
same,dissociation constant,[4],56.81 µM
same,binding,[15],weak
same,binding,[16],no
same,binding,[17],yes
same,binding,[18],yes
same,binding,[19],yes
same,binding,[20],yes
same,binding,[21],no

# Source: publication PMC5805748 (2018)
